Read-outs that look alike come from different tables or passages of the source.
How the values were obtained:
mucous metaplasia = assay: Mucous metaplasia in sensitized/challenged mice (photomicrographs); format: in vivo; conditions: sensitized/challenged mice after treatment
Text: FIG. 9 is a photomicrograph showing the occurrence of a mucus plug in the bronchus of a child with fatal asthma.

β2-adrenergic receptor = target: T1, β2-adrenergic receptor (Mus musculus, UniProt P18762); assay: β-adrenergic receptor density by radioligand binding (ICYP) in lung membranes of treated asthmatic mice; conditions: for Kd: KD of radioligand ICYP in lung membranes, not of the drug, read-out: Apparent KD (in parentheses) (converted); for Bmax (receptor density): lung membranes
T1 construct: rows headed: Apparent KD (in parentheses); other: 15 Minutes of drug treatment; KD of radioligand ICYP in lung membranes, not of the; Bmax (receptor density); lung membranes; Apparent KD (in parentheses); other: 28 Days of drug treatment; KD of radioligand ICYP in lung membranes, not of the dr

β-arrestin pathway = assay: Block of the β-arrestin pathway; conditions: FIG. 13
[1] = cited from earlier work
[2] = Pharmacokinetics of inhaled and oral airway drugs (literature); format: in vivo, humans; conditions: 6 children with asthma versus 11 healthy adults
[3] = system: asthmatic mice (ovalbumin-sensitized and ovalbumin-challenged); format: in vivo, Balb/cJ mice; conditions: chronic treatment 7 days, 20 mg/kg (metoprolol 3x daily s.c., timolol in chow), versus historical controls
[4] = cited from earlier work; remark: listed apart in the source
Phospholipase C (PLC-β1) = assay: Ratio of phospholipase C to actin by immunoblotting in cultured tracheal smooth muscle cells; format: cell-based; conditions: cells from asthmatic mice, chronic nadolol high dose treatment
Text: Cultured tracheal smooth muscle cells were obtained from mice exposed to the following treatments: NS/NC=nonasthmatic, non-challenged mice; S/C=asthmatic mice; Sal.Ac=asthmatic mice, acute salbutamol treatment; Sal.Ch=asthmatic mice, chronic salbutamol treatment; Nad.Ac=asthmatic mice, acute nadolol high dose treatment; and Nad.Ch=asthmatic mice, chronic nadolol high dose treatment.
After airway function experiments, the tracheas were surgically removed from anesthetized mice that had been treated with drugs or vehicle. The tracheas were minced and the cells plated and grown in culture. The smooth muscle cells grow faster and take over the culture dish. The cells were grown in medium which contained the drugs used in the treatment or vehicle controls. Phospholipase C (PLC-(β1) was determined by immunoblotting with an antibody specific for the enzyme. Actin was used as a loading control and the amount of PLC-β1 was expressed as a ratio of phospholipase C to actin.

mucin 5AC = assay: Level of mucin 5AC in smokers, nadolol versus placebo; format: in vivo, human; conditions: P<0.05
cAMP accumulation = assay: cAMP accumulation

T1 sequence (P18762 whole entry): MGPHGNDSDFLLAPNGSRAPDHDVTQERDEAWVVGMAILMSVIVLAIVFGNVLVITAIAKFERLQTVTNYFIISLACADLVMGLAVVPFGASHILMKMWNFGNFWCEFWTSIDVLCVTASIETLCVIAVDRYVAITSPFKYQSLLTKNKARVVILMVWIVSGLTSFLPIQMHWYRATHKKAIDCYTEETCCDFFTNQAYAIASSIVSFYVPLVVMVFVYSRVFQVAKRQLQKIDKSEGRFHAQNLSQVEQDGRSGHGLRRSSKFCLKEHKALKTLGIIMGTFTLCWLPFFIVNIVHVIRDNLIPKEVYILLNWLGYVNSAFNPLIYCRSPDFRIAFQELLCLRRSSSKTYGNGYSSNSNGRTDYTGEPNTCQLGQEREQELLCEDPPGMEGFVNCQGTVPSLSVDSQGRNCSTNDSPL

Structure (SMILES)	Kd (β2-adrenergic receptor; 15 Minutes of drug treatment) [pM]	Kd (β2-adrenergic receptor; 28 Days of drug treatment) [pM]	Bmax (receptor density) (β2-adrenergic receptor; 28 Days of drug treatment)	block of the β-arrestin pathway (β-arrestin pathway)	other results
C=CCc1ccccc1OCC(O)CNC(C)C (stereo not drawn) [alprenolol]	454	291	179.2 ± 53.05 femtomoles of sites per milligram of protein	did not block the β-arrestin pathway	mucous metaplasia (mucous metaplasia): no improvement in mucous metaplasia
CCCC1O[C@@H]2C[C@H]3[C@@H]4CCC5=CC(=O)C=C[C@]5(C)[C@H]4[C@@H](O)C[C@]3(C)[C@]2(C(=O)CO)O1 (stereo partly drawn) [budesonide]					elimination half-life ([1]; in vivo): 2.8 ± 1.1 h; plasma clearance ([1]; in vivo): 84 ± 27 L/h; plasma clearance of the two enantiomers per kilogram of bodyweight, excess in children over adults [2]: about 50%
COc1ccccc1OCCNCC(O)COc1cccc2[nH]c3ccccc3c12 (stereo not drawn) [carvedilol]	565	1440	904.1 ± 43.46 femtomoles of sites per milligram of protein	did not block the β-arrestin pathway	
COCCc1ccc(OCC(O)CNC(C)C)cc1 (stereo not drawn) [metoprolol]					airway hyperresponsiveness (Raw) [3]: effective in reducing airway hyperresponsiveness
CC(C)(C)NCC(O)COc1cccc2c1CC(O)C(O)C2 (stereo not drawn) [nadolol]	695	1590	785.5 ± 154.8 femtomoles of sites per milligram of protein	blocks this pathway	mucous metaplasia (mucous metaplasia): nearly complete elimination of mucous metaplasia; lipid solubility [4]: low lipid solubility; ratio of phospholipase C (PLC-β1) to actin (Phospholipase C (PLC-β1)): significantly decreases the activity of phospholipase C; level of mucin 5AC (mucin 5AC): reduces the accumulation of the mucus-associated protein mucin 5AC; cAMP accumulation (cAMP accumulation): not associated with cAMP accumulation
CC(C)NCC(O)COc1cccc2ccccc12 (stereo not drawn) [propranolol]				did not block the β-arrestin pathway	
CC(C)(C)NCC(O)c1ccc(O)c(CO)c1 (stereo not drawn) [salbutamol]			97.0 ± 23.02 femtomoles of sites per milligram of protein		
CC(C)(C)NCC(O)c1cc(O)cc(O)c1 (stereo not drawn) [terbutaline]					bioavailability with the oral component (swallowed fraction of the dose) added ([1]; from an MDI): 16.5%; mean pulmonary bioavailability ([1]; from an MDI): 9.1%
CC(C)(C)NC[C@H](O)COc1nsnc1N1CCOCC1 [timolol]					airway hyperresponsiveness (Raw) [3]: effective in reducing airway hyperresponsiveness

From US20260240794A1 (priority 2023, published 2026)
